Results taken from patent US10238631B2, “Sesquiterpene derivatives and their use in inflammation or cancer treatment” (Academia Sinica, priority 2014, dated 2019).

test system: LPS-induced nitric oxide (NO) production in RAW 264.7 cells; test: Nitric oxide production in LPS-stimulated macrophages (Griess); format: cell-based, mouse; conditions: Mus musculus; LPS-stimulated RAW264.7, nitrite 24 h after LPS
Experimental: (§1) Marcophages (2×10^5 cells/well in 96-well plate) were treated with compounds for 1 h, then incubated further for 24 h with or without the presence of […] LPS in the cultural medium. Nitrite levels in cell culture medium were determined by the Griess reaction method. In parallel to the Griess assays, macrophage cell viabilities were determined using the MTT based colorimetric assay.
LPS from the outer membrane of Gram-negative bacteria can induce mRNA or protein levels of inducible nitric oxide synthase (iNOS), which catalyzes oxidative deamination of L-arginine to produce nitric oxide (NO). Once NO is predominantly produced, it interacts with superoxide anion and generates highly reactive oxidants resulting in cellular inflammation, DNA, protein and tissue damages, carcinogenesis, and antiapoptosis. We used in vitro LPS stimulated inflammation in RAW264.7 cell system to evaluate the effect of DET and its derivatives DETDs on NO production by determination of nitrite level (equivalent to NO level) in culture medium 24 h after LPS treatment.

| SMILES | IC50 [µM] |
| --- | --- |
| C=C1C(=O)OC2CC3=C[C@@H](C/C(C)=C/C(OC(=O)c4cc5ccccc5o4)[C@H]12)OC3=O (stereo partly drawn) [DETD-40] | 4.5 |
| C=C1C(=O)OC2CC3=C[C@@H](C/C(C)=C/C(OC(=O)C(C)CCCC)[C@H]12)OC3=O (stereo partly drawn) [DETD-22] | 3.5 |

test system: MCF-7 (ER+, Her2−) human breast cancer cells; test: MTT cell viability assay, MCF-7 cells; format: cell-based; conditions: MCF7, 24 h, read-out: IC50 on cell viability, MCF-7 (ER+, Her2−)
Experimental: (§2) Normal or cancer cells (2×10^3 to 1×10^4 cells/well) were seeded in 96-well plate for overnight and treated with different compounds for 24 h to 72 h. Cells growth were determined by MTT-based colorimetric assays according to. Viability of the test cells treated with vehicle (0.5% DMSO) only was defined as 100% viable. Survival of cells after treatment with DETDs was calculated using the following formula: viable cell number (%)=OD570 (treated cell culture)/OD570 (vehicle control)×100.
(§3) Sixty DETDs were derived from parental compound […] and tested for anti-breast cancer cell activity.

| SMILES | IC50 [µM] |
| --- | --- |
| C=C1C(=O)OC2CC3=C[C@@H](C/C(C)=C/C(OC(=O)c4cc5ccccc5o4)[C@H]12)OC3=O (stereo partly drawn) [DETD-40] | 6.1 |
| C=C1C(=O)OC2CC3=C[C@@H](C/C(C)=C/C(OC(=O)C(C)CCCC)[C@H]12)OC3=O (stereo partly drawn) [DETD-22] | 2.5 |

test system: Melanocyte (Normal cells); test: MTT cell viability assay, normal melanocytes; format: cell-based, human; conditions: Homo sapiens, Melanocyte, 24 h
Experimental: as §2
(§4) Several genes are involved in melanoma development and pathology; specifically, mutation in V-raf murine sarcoma viral oncogene homolog B1 (B-RAF) occurs approximately 50-60% and in neuroblastoma RAS viral oncogene homolog (N-RAS) occurs about 30% of malignant melanomas. A spectrum of wild-type or mutated melanoma cell lines including B16-F10, MeWo, A375, A2058, HTB-68, and melanocyte were used to study anti-melanoma cell proliferation activity of parental phytocompound DET and newly synthesized DETDs.

| SMILES | IC50 [µM] |
| --- | --- |
| C=C1C(=O)OC2CC3=C[C@@H](C/C(C)=C/C(OC(=O)c4cc5ccccc5o4)[C@H]12)OC3=O (stereo partly drawn) [DETD-40] | > 10 |
| C=C1C(=O)OC2CC3=C[C@@H](C/C(C)=C/C(OC(=O)C(C)CCCC)[C@H]12)OC3=O (stereo partly drawn) [DETD-22] | > 10 |

test system: M10 normal mammary epithelial cells; test: MTT cell viability assay, M10 normal cells; format: cell-based, human; conditions: Homo sapiens, Epithelial cell, 24 h
Experimental: as §2, §3

| SMILES | IC50 [µM] |
| --- | --- |
| C=C1C(=O)OC2CC3=C[C@@H](C/C(C)=C/C(OC(=O)c4cc5ccccc5o4)[C@H]12)OC3=O (stereo partly drawn) [DETD-40] | > 7.5 |
| C=C1C(=O)OC2CC3=C[C@@H](C/C(C)=C/C(OC(=O)C(C)CCCC)[C@H]12)OC3=O (stereo partly drawn) [DETD-22] | 4.7 |

test system: MeWo (No NRAS or BRAF mutation); test: MTT cell viability assay, MeWo melanoma; format: cell-based, human; conditions: Homo sapiens, MeWo, 24 h
Experimental: as §2, §4

| SMILES | IC50 [µM] |
| --- | --- |
| C=C1C(=O)OC2CC3=C[C@@H](C/C(C)=C/C(OC(=O)c4cc5ccccc5o4)[C@H]12)OC3=O (stereo partly drawn) [DETD-40] | > 10 |
| C=C1C(=O)OC2CC3=C[C@@H](C/C(C)=C/C(OC(=O)C(C)CCCC)[C@H]12)OC3=O (stereo partly drawn) [DETD-22] | > 10 |

test system: B16-F10 (NRAS mutation); test: MTT cell viability assay, B16-F10 melanoma; format: cell-based; conditions: Mus musculus, B16-F10, 24 h, 24 h, read-out: IC50 on cell viability, B16-F10 (NRAS mutation)
Experimental: as §2, §4

| SMILES | IC50 [µM] |
| --- | --- |
| C=C1C(=O)OC2CC3=C[C@@H](C/C(C)=C/C(OC(=O)c4cc5ccccc5o4)[C@H]12)OC3=O (stereo partly drawn) [DETD-40] | 4.3 |
| C=C1C(=O)OC2CC3=C[C@@H](C/C(C)=C/C(OC(=O)C(C)CCCC)[C@H]12)OC3=O (stereo partly drawn) [DETD-22] | 6.8 |

test system: RAW264.7 (normal macrophage); test: MTT cell viability assay, RAW264.7 macrophages; format: cell-based, mouse; conditions: Mus musculus, RAW264.7, 24 h
Experimental: as §2, §1

| SMILES | IC50 [µM] |
| --- | --- |
| C=C1C(=O)OC2CC3=C[C@@H](C/C(C)=C/C(OC(=O)c4cc5ccccc5o4)[C@H]12)OC3=O (stereo partly drawn) [DETD-40] | > 10 |
| C=C1C(=O)OC2CC3=C[C@@H](C/C(C)=C/C(OC(=O)C(C)CCCC)[C@H]12)OC3=O (stereo partly drawn) [DETD-22] | > 10 |

test system: A375 (BRAF mutation); test: MTT cell viability assay, A375 melanoma; format: cell-based, human; conditions: Homo sapiens, A-375, 24 h, 24 h, MTT; read-out: IC50 on cell viability, A375 (BRAF mutation)
Experimental: as §2, §4
To investigate whether or not DETD-35 show synergism with PLX4032 against A375 melanoma cells, we performed anti-proliferation assay using MTT reagent to obtain IC50 of each compound. […] The synergistic effect was quantified by combination index (CI) analysis as stated above.

| SMILES | IC50 [µM] |
| --- | --- |
| C=C1C(=O)OC2CC3=C[C@@H](C/C(C)=C/C(OC(=O)c4cc5ccccc5o4)[C@H]12)OC3=O (stereo partly drawn) [DETD-40] | > 10 |
| C=C1C(=O)OC2CC3=C[C@@H](C/C(C)=C/C(OC(=O)C(C)CCCC)[C@H]12)OC3=O (stereo partly drawn) [DETD-22] | > 10 |

test system: A2058 (BRAF mutation); test: MTT cell viability assay, A2058 melanoma; format: cell-based, human; conditions: Homo sapiens, A2058, 24 h
Experimental: as §2, §4

| SMILES | IC50 [µM] |
| --- | --- |
| C=C1C(=O)OC2CC3=C[C@@H](C/C(C)=C/C(OC(=O)c4cc5ccccc5o4)[C@H]12)OC3=O (stereo partly drawn) [DETD-40] | > 10 |
| C=C1C(=O)OC2CC3=C[C@@H](C/C(C)=C/C(OC(=O)C(C)CCCC)[C@H]12)OC3=O (stereo partly drawn) [DETD-22] | > 10 |

test system: HTB-68 (NRAS mutation); test: MTT cell viability assay, HTB-68 melanoma; format: cell-based, human; conditions: Homo sapiens, 24 h
Experimental: as §2, §4

| SMILES | IC50 [µM] |
| --- | --- |
| C=C1C(=O)OC2CC3=C[C@@H](C/C(C)=C/C(OC(=O)c4cc5ccccc5o4)[C@H]12)OC3=O (stereo partly drawn) [DETD-40] | > 10 |
| C=C1C(=O)OC2CC3=C[C@@H](C/C(C)=C/C(OC(=O)C(C)CCCC)[C@H]12)OC3=O (stereo partly drawn) [DETD-22] | > 10 |

test system: MDA-MB-231 (ER−, PR−, Her2−) human breast cancer cells; test: MTT cell viability assay, MDA-MB-231 cells; format: cell-based; conditions: Homo sapiens, MDA-MB-231, 24 h, read-out: IC50 on cell viability, MDA-MB-231 (ER−, PR−, Her2−)
Experimental: as §2, §3

| SMILES | IC50 [µM] |
| --- | --- |
| C=C1C(=O)OC2CC3=C[C@@H](C/C(C)=C/C(OC(=O)c4cc5ccccc5o4)[C@H]12)OC3=O (stereo partly drawn) [DETD-40] | 4.9 |
| C=C1C(=O)OC2CC3=C[C@@H](C/C(C)=C/C(OC(=O)C(C)CCCC)[C@H]12)OC3=O (stereo partly drawn) [DETD-22] | 4.3 |

test system: TS/A (ER+, Her2−) murine mammary cancer cells; test: MTT cell viability assay, TS/A cells; format: cell-based; conditions: Mus musculus, 24 h, read-out: IC50 on cell viability, TS/A (ER+, Her2−)
Experimental: as §2, §3

| SMILES | IC50 [µM] |
| --- | --- |
| C=C1C(=O)OC2CC3=C[C@@H](C/C(C)=C/C(OC(=O)c4cc5ccccc5o4)[C@H]12)OC3=O (stereo partly drawn) [DETD-40] | 3.1 |
| C=C1C(=O)OC2CC3=C[C@@H](C/C(C)=C/C(OC(=O)C(C)CCCC)[C@H]12)OC3=O (stereo partly drawn) [DETD-22] | 1.8 |
